Results: paper PMC9934367, “Functional impact of subunit composition and compensation on Drosophila melanogaster nicotinic receptors–targets of neonicotinoids” (PLOS Genetics, 2023)

Tested on: D. melanogaster nAChRs
Test: Comparison of agonist activity between nAChRs expressed in X. laevis oocytes (one-way ANOVA, Kruskal-Wallis);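 as to Difference of Imax values: Imax relative to maximal plateau response to ACh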
Format: cell-based
How it was run: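 D. melanogaster nAChR subunits and co-factors expressed in X. laevis oocytes by cRNA injection, recorded after 3–4 days by two-electrode voltage clamp at −100 mV in saline with 0.5 μM atropine. Peak currents fitted to a Hill equation for EC50; pEC50 differences tested by one-way ANOVA or Kruskal-Wallis.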

[1] = Dα1/Dβ1 vs. Dα1/Dα2/Dα3/Dβ1/Dβ2
[2] = Dα2/Dα3/Dβ1/Dβ2 vs. Dα1/Dα2/Dα3/Dβ1/Dβ2
[3] = Dα2/Dα3/Dβ1 vs. Dα1/Dα2/Dα3/Dβ1
[4] = Dα2/Dα3/Dβ1 vs. Dα1/Dα2/Dα3/Dβ1/Dβ2
[5] = Dα2/Dα3/Dβ1 vs. Dα1/Dα2/Dβ1/Dβ2
[6] = Dα2/Dα3/Dβ1 vs. Dα1/Dα3/Dβ1/Dβ2
[7] = Dα2/Dα3/Dβ1 vs. Dα2/Dα3/Dβ1/Dβ2
[8] = Dα3/Dβ1/Dβ2 vs. Dα1/Dα2/Dα3/Dβ1/Dβ2
[9] = Dα3/Dβ1/Dβ2 vs. Dα1/Dα2/Dβ1/Dβ2
[10] = Dα3/Dβ1/Dβ2 vs. Dα1/Dα3/Dβ1/Dβ2
[11] = Dα3/Dβ1/Dβ2 vs. Dα2/Dα3/Dβ1/Dβ2
[12] = Dα3/Dβ1 vs. Dα1/Dα2/Dα3/Dβ1/Dβ2

N#C/N=C1\SCCN1Cc1ccc(Cl)nc1 [Thiacloprid, thiacloprid]
Difference of pEC50 values (Dα1/Dβ1/Dβ2 vs. Dα2/Dα3/Dβ1/Dβ2): -0.22
Difference of Imax values (Dα1/Dβ1/Dβ2 vs. Dα3/Dβ1/Dβ2): 0.021
Difference of pEC50 values (Dα1/Dβ1/Dβ2 vs. Dα3/Dβ1/Dβ2): -0.46
Difference of Imax values (Dα1/Dβ1 vs. Dα1/Dα2/Dα3/Dβ1): 0.044
Difference of pEC50 values (Dα1/Dβ1 vs. Dα1/Dα2/Dα3/Dβ1): 0.06
Difference of Imax values [1]: 0.032
Difference of pEC50 values [1]: 0.61
Difference of Imax values (Dα1/Dβ1 vs. Dα1/Dα2/Dβ1): 0.066
Difference of pEC50 values (Dα1/Dβ1 vs. Dα1/Dα2/Dβ1): 0.87
Difference of Imax values (Dα1/Dβ1 vs. Dα1/Dα2/Dβ1/Dβ2): 0.017
Difference of pEC50 values (Dα1/Dβ1 vs. Dα1/Dα2/Dβ1/Dβ2): 0.69
Difference of Imax values (Dα1/Dβ1 vs. Dα1/Dα3/Dβ1): 0.044
Difference of pEC50 values (Dα1/Dβ1 vs. Dα1/Dα3/Dβ1): -0.28
Difference of Imax values (Dα1/Dβ1 vs. Dα1/Dα3/Dβ1/Dβ2): -0.016
Difference of pEC50 values (Dα1/Dβ1 vs. Dα1/Dα3/Dβ1/Dβ2): -0.21
Difference of Imax values (Dα1/Dβ1 vs. Dα1/Dβ1/Dβ2): 0.048
Difference of pEC50 values (Dα1/Dβ1 vs. Dα1/Dβ1/Dβ2): -0.07
Difference of Imax values (Dα1/Dβ1 vs. Dα2/Dα3/Dβ1): 0.046
Difference of pEC50 values (Dα1/Dβ1 vs. Dα2/Dα3/Dβ1): 0.87
Difference of Imax values (Dα1/Dβ1 vs. Dα2/Dα3/Dβ1/Dβ2): 0.074
Difference of pEC50 values (Dα1/Dβ1 vs. Dα2/Dα3/Dβ1/Dβ2): -0.29
Difference of Imax values (Dα1/Dβ1 vs. Dα3/Dβ1): 0.075
Difference of pEC50 values (Dα1/Dβ1 vs. Dα3/Dβ1): -0.01
Difference of Imax values (Dα1/Dβ1 vs. Dα3/Dβ1/Dβ2): 0.069
Difference of pEC50 values (Dα1/Dβ1 vs. Dα3/Dβ1/Dβ2): -0.53
Difference of Imax values [2]: -0.042
Difference of pEC50 values [2]: 0.90
Difference of Imax values [3]: -0.002
Difference of pEC50 values [3]: -0.81
Difference of Imax values [4]: -0.014
Difference of pEC50 values [4]: -0.26
Difference of Imax values [5]: -0.029
Difference of pEC50 values [5]: -0.18
Difference of Imax values [6]: -0.062
Difference of pEC50 values [6]: -1.08
Difference of Imax values (Dα2/Dα3/Dβ1 vs. Dα1/Dβ1/Dβ2): 0.002
Difference of pEC50 values (Dα2/Dα3/Dβ1 vs. Dα1/Dβ1/Dβ2): -0.94
Difference of Imax values [7]: 0.028
Difference of pEC50 values [7]: -1.16
Difference of Imax values (Dα2/Dα3/Dβ1 vs. Dα3/Dβ1/Dβ2): 0.023
Difference of pEC50 values (Dα2/Dα3/Dβ1 vs. Dα3/Dβ1/Dβ2): -1.40
Difference of Imax values [8]: -0.037
Difference of pEC50 values [8]: 1.14
Difference of Imax values [9]: -0.052
Difference of pEC50 values [9]: 1.22
Difference of Imax values [10]: -0.085
Difference of pEC50 values [10]: 0.32
Difference of Imax values [11]: 0.005
Difference of pEC50 values [11]: 0.24
Difference of Imax values (Dα3/Dβ1 vs. Dα1/Dα2/Dα3/Dβ1): -0.031
Difference of pEC50 values (Dα3/Dβ1 vs. Dα1/Dα2/Dα3/Dβ1): 0.07
Difference of Imax values [12]: -0.043
Difference of pEC50 values [12]: 0.62
Difference of Imax values (Dα3/Dβ1 vs. Dα1/Dα2/Dβ1): -0.009
Difference of pEC50 values (Dα3/Dβ1 vs. Dα1/Dα2/Dβ1): 0.88
Difference of Imax values (Dα3/Dβ1 vs. Dα1/Dα2/Dβ1/Dβ2): -0.058
Difference of pEC50 values (Dα3/Dβ1 vs. Dα1/Dα2/Dβ1/Dβ2): 0.70
Difference of Imax values (Dα3/Dβ1 vs. Dα1/Dα3/Dβ1): -0.031
Difference of pEC50 values (Dα3/Dβ1 vs. Dα1/Dα3/Dβ1): -0.27
Difference of Imax values (Dα3/Dβ1 vs. Dα1/Dα3/Dβ1/Dβ2): -0.091
Difference of pEC50 values (Dα3/Dβ1 vs. Dα1/Dα3/Dβ1/Dβ2): -0.20
Difference of Imax values (Dα3/Dβ1 vs. Dα1/Dβ1/Dβ2): -0.027
Difference of pEC50 values (Dα3/Dβ1 vs. Dα1/Dβ1/Dβ2): -0.06
Difference of Imax values (Dα3/Dβ1 vs. Dα2/Dα3/Dβ1): -0.029
Difference of pEC50 values (Dα3/Dβ1 vs. Dα2/Dα3/Dβ1): 0.88
Difference of Imax values (Dα3/Dβ1 vs. Dα2/Dα3/Dβ1/Dβ2): -0.001
Difference of pEC50 values (Dα3/Dβ1 vs. Dα2/Dα3/Dβ1/Dβ2): -0.28
Difference of Imax values (Dα3/Dβ1 vs. Dα3/Dβ1/Dβ2): -0.006
Difference of pEC50 values (Dα3/Dβ1 vs. Dα3/Dβ1/Dβ2): -0.52
